According to patent publication US7998978B2 (Pfizer Inc., priority 2006, dated 2011):

target: T1, JNK1α1 (Homo sapiens, UniProt P45983); test: Coupled spectrophotometric (PK/LDH) JNK1α1 assay: % inhibition and Ki determination; type: biochemical; conditions: JNK-1
T1 construct: catalytic domain containing amino acids 1-364 and N-terminal hexahistidine tag; hexahistidine (His6) (N); made in house; host or cells: E. coli BL21 (DE3)
How it was run: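 Initial rates were taken from the absorbance decrease at 340 nm at 30° C. Ki was fitted with a tight-binding model over 11 concentrations (top 100 μM); single-point inhibition was tested at 1 or 10 μM.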

T1 sequence (P45983 1-364): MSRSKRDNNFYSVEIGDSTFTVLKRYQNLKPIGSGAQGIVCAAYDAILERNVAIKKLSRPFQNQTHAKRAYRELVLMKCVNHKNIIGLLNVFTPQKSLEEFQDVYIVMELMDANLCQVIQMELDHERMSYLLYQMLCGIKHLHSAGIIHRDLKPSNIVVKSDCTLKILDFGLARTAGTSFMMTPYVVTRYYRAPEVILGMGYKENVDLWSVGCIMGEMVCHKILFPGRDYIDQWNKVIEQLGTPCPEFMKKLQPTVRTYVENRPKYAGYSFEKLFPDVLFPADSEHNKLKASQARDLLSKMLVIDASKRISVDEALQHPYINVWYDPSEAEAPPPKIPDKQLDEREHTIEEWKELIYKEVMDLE

Compared with COc1ccccc1C(CO)NC(=O)c1ccc2cnc(N[C@H]3CC[C@H](O)CC3)nc2c1 (stereo partly drawn) [Example 97, 2-[(trans-4-hydroxycyclohexyl)amino]-N-[2-hydroxy-1-(2-methoxyphenyl)ethyl]quinazoline-7-carboxamide], O=C(NC(CO)c1ccccc1F)c1ccc2cnc(N[C@H]3CC[C@H](O)CC3)nc2c1 (stereo partly drawn) [Example 98, N-[1-(2-fluorophenyl)-2-hydroxyethyl]-2-[(trans-4-hydroxycyclohexyl)amino]quinazoline-7-carboxamide] is 1.7-fold lower in Ki: 55 nM for the first, 33 nM for the second.

First: O=C(NC(CO)c1ccccc1Cl)c1ccc2cnc(N[C@H]3CC[C@H](O)CC3)nc2c1 (stereo partly drawn) [Example 99, N-[1-(2-chlorophenyl)-2-hydroxyethyl]-2-[(trans-4-hydroxycyclohexyl)amino]quinazoline-7-carboxamide]
Second: O=C(NC(CO)c1ccccn1)c1ccc2cnc(N[C@H]3CC[C@H](O)CC3)nc2c1 (stereo partly drawn) [Example 100, 2-[(trans-4-hydroxycyclohexyl)amino]-N-(2-hydroxy-1-pyridin-2-ylethyl)quinazoline-7-carboxamide]
The Ki of the first is 6.7-fold lower: 18 nM for the first, 120 nM for the second.

Going from NC[C@@H](NC(=O)c1ccc2cnc(N[C@H]3CC[C@H](O)CC3)nc2c1)c1ccccc1 [Example 101, N-[(1S)-2-amino-1-phenylethyl]-2-[(trans-4-hydroxycyclohexyl)amino]quinazoline-7-carboxamide] to O=C(NCc1ccccc1)c1cccc2cnc(N[C@H]3CC[C@H](O)CC3)nc12 [Example 124, N-benzyl-2-[(trans-4-hydroxycyclohexyl)amino]quinazoline-8-carboxamide], the Ki rises from 94 nM to 410 nM (4.4-fold).

First: O=C(c1cccc2cnc(N[C@H]3CC[C@H](O)CC3)nc12)N1CCOCC1 [Example 102, trans-4-{[8-(morpholin-4-ylcarbonyl)quinazolin-2-yl]amino}cyclohexanol]
Second: O=C(NCCN1CCOCC1)c1cccc2cnc(N[C@H]3CC[C@H](O)CC3)nc12 [Example 116, 2-[(trans-4-hydroxycyclohexyl)amino]-N-(2-morpholin-4-ylethyl)quinazoline-8-carboxamide]
The Ki of the first is 2.5-fold lower: 992 nM for the first, 2450 nM for the second.

Compared with CC(C)NC(=O)c1cccc2cnc(N[C@H]3CC[C@H](O)CC3)nc12 [Example 103, 2-[(trans-4-hydroxycyclohexyl)amino]-N-isopropylquinazoline-8-carboxamide], C[C@@H](CO)NC(=O)c1cccc2cnc(N[C@H]3CC[C@H](O)CC3)nc12 [Example 122, 2-[(trans-4-hydroxycyclohexyl)amino]-N-[(1S)-2-hydroxy-1-methylethyl]quinazoline-8-carboxamide] is 2.1-fold lower in Ki: 176 nM for the first, 82 nM for the second.

First: CC(C)(CO)NC(=O)c1cccc2cnc(N[C@H]3CC[C@H](O)CC3)nc12 [Example 104, 2-[(trans-4-hydroxycyclohexyl)amino]-N-(2-hydroxy-1,1-dimethylethyl)quinazoline-8-carboxamide]
Second: CC(C)(O)CNC(=O)c1cccc2cnc(N[C@H]3CC[C@H](O)CC3)nc12 [Example 121, 2-[(trans-4-hydroxycyclohexyl)amino]-N-(2-hydroxy-2-methylpropyl)quinazoline-8-carboxamide]
The Ki of the first is 2.6-fold lower: 66 nM for the first, 169 nM for the second.

First: CC(C)(CN1CCOCC1)NC(=O)c1cccc2cnc(N[C@H]3CC[C@H](O)CC3)nc12 [Example 105, N-(1,1-dimethyl-2-morpholin-4-ylethyl)-2-[(trans-4-hydroxycyclohexyl)amino]quinazoline-8-carboxamide]
Second: O=C(NC1CCOCC1)c1cccc2cnc(N[C@H]3CC[C@H](O)CC3)nc12 [Example 113, 2-[(trans-4-hydroxycyclohexyl)amino]-N-(tetrahydro-2H-pyran-4-yl)quinazoline-8-carboxamide]
The Ki of the first is 2.6-fold higher: 703 nM for the first, 271 nM for the second. The second binds more tightly here.

Compared with CS(=O)(=O)CCNC(=O)c1cccc2cnc(N[C@H]3CC[C@H](O)CC3)nc12 [Example 106, 2-[(trans-4-hydroxycyclohexyl)amino]-N-[2-(methylsulfonyl)ethyl]quinazoline-8-carboxamide], O=C(NCCO)c1cccc2cnc(N[C@H]3CC[C@H](O)CC3)nc12 [Example 108, 2-[(trans-4-hydroxycyclohexyl)amino]-N-(2-hydroxyethyl)quinazoline-8-carboxamide] is 1.8-fold lower in Ki: 223 nM for the first, 126 nM for the second. The second binds more tightly here.

First: O=C(NCC1CCOC1)c1cccc2cnc(N[C@H]3CC[C@H](O)CC3)nc12 (stereo partly drawn) [Example 107, 2-[(trans-4-hydroxycyclohexyl)amino]-N-(tetrahydrofuran-3-ylmethyl)quinazoline-8-carboxamide]
Second: O=C(NC1CCOC1)c1cccc2cnc(N[C@H]3CC[C@H](O)CC3)nc12 (stereo partly drawn) [Example 111, 2-[(trans-4-hydroxycyclohexyl)amino]-N-(tetrahydrofuran-3-yl)quinazoline-8-carboxamide]
The Ki of the first is 1.8-fold higher: 250 nM for the first, 142 nM for the second. The second binds more tightly here.

Compared with COCCNC(=O)c1cccc2cnc(N[C@H]3CC[C@H](O)CC3)nc12 [Example 109, 2-[(trans-4-hydroxycyclohexyl)amino]-N-(2-methoxyethyl)quinazoline-8-carboxamide], CCNC(=O)c1cccc2cnc(N[C@H]3CC[C@H](O)CC3)nc12 [Example 118, N-ethyl-2-[(trans-4-hydroxycyclohexyl)amino]quinazoline-8-carboxamide] is 3.1-fold lower in Ki: 678 nM for the first, 222 nM for the second.

Going from O=C(Nc1ccccn1)c1cccc2cnc(N[C@H]3CC[C@H](O)CC3)nc12 [Example 110, 2-[(trans-4-hydroxycyclohexyl)amino]-N-pyridin-2-ylquinazoline-8-carboxamide] to CC(O)c1cccc(NC(=O)c2cccc3cnc(N[C@H]4CC[C@H](O)CC4)nc23)n1 (stereo partly drawn) [Example 126, 2-[(trans-4-hydroxycyclohexyl)amino]-N-[6-(1-hydroxyethyl)pyridin-2-yl]quinazoline-8-carboxamide], the Ki rises from 86 nM to 382 nM (4.4-fold).

Going from O=C(c1cccc2cnc(N[C@H]3CC[C@H](O)CC3)nc12)N1CCC(O)C1 (stereo partly drawn) [Example 112, 1-({2-[(trans-4-hydroxycyclohexyl)amino]quinazolin-8-yl}carbonyl)pyrrolidin-3-ol] to CNC(=O)c1cccc2cnc(N[C@H]3CC[C@H](O)CC3)nc12 [Example 114, 2-[(trans-4-hydroxycyclohexyl)amino]-N-methylquinazoline-8-carboxamide], the Ki falls from over 10000 nM to 1550 nM. The second binds more tightly here.

Going from O=C(NC1CCCC1)c1cccc2cnc(N[C@H]3CC[C@H](O)CC3)nc12 [Example 115, N-cyclopentyl-2-[(trans-4-hydroxycyclohexyl)amino]quinazoline-8-carboxamide] to O=C(NC1CCS(=O)(=O)C1)c1cccc2cnc(N[C@H]3CC[C@H](O)CC3)nc12 (stereo partly drawn) [Example 119, N-(1,1-dioxidotetrahydro-3-thienyl)-2-[(trans-4-hydroxycyclohexyl)amino]quinazoline-8-carboxamide], the Ki rises from 230 nM to 377 nM (1.6-fold). The first binds more tightly here.

First: O=C(NCC1CCOC1)c1cccc2cnc(N[C@H]3CC[C@H](O)CC3)nc12 (stereo partly drawn) [Example 117, 2-[(trans-4-hydroxycyclohexyl)amino]-N-(tetrahydrofuran-3-ylmethyl)quinazoline-8-carboxamide]
Second: O=C(NCC1(O)CCC1)c1cccc2cnc(N[C@H]3CC[C@H](O)CC3)nc12 [Example 129, N-[(1-hydroxycyclobutyl)methyl]-2-[(trans-4-hydroxycyclohexyl)amino]quinazoline-8-carboxamide]
The Ki of the first is 1.9-fold higher: 250 nM for the first, 130 nM for the second.

First: C[C@@H](O)CNC(=O)c1cccc2cnc(N[C@H]3CC[C@H](O)CC3)nc12 [Example 120, 2-[(trans-4-hydroxycyclohexyl)amino]-N-[(2R)-2-hydroxypropyl]quinazoline-8-carboxamide]
Second: C[C@H](CO)NC(=O)c1cccc2cnc(N[C@H]3CC[C@H](O)CC3)nc12 [Example 123, 2-[(trans-4-hydroxycyclohexyl)amino]-N-[(1R)-2-hydroxy-1-methylethyl]quinazoline-8-carboxamide]
The Ki of the first is 4.3-fold lower: 147 nM for the first, 634 nM for the second.

Compared with O=C(Nc1nccc(O)n1)c1cccc2cnc(N[C@H]3CC[C@H](O)CC3)nc12 [Example 125, 2-[(trans-4-hydroxycyclohexyl)amino]-N-(4-hydroxypyrimidin-2-yl)quinazoline-8-carboxamide], CC(C)(N)CNC(=O)c1cccc2cnc(N[C@H]3CC[C@H](O)CC3)nc12 [Example 128, N-(2-amino-2-methylpropyl)-2-[(trans-4-hydroxycyclohexyl)amino]quinazoline-8-carboxamide] is 6.7-fold higher in Ki: 520 nM for the first, 3500 nM for the second.

Compared with CN(C)CCNC(=O)c1cccc2cnc(N[C@H]3CC[C@H](O)CC3)nc12 [Example 127, N-[2-(dimethylamino)ethyl]-2-[(trans-4-hydroxycyclohexyl)amino]quinazoline-8-carboxamide], CC(C)(O)CNC(=O)c1cccc2cnc(N[C@H]3CC[C@H](NS(C)(=O)=O)CC3)nc12 [Example 130, N-(2-hydroxy-2-methylpropyl)-2-({trans-4-[(methylsulfonyl)amino]cyclohexyl}amino)quinazoline-8-carboxamide] is 25-fold lower in Ki: 3490 nM for the first, 141 nM for the second. The second binds more tightly here.

First: C[C@@H](CO)NC(=O)c1cccc2cnc(N[C@H]3CC[C@H](NS(C)(=O)=O)CC3)nc12 [Example 131, N-[(1S)-2-hydroxy-1-methylethyl]-2-({trans-4-[(methylsulfonyl)amino]cyclohexyl}amino)quinazoline-8-carboxamide]
Second: CC(=O)N[C@H]1CC[C@H](Nc2ncc3cccc(C(=O)N[C@@H](C)CO)c3n2)CC1 [Example 133, 2-{[trans-4-(acetylamino)cyclohexyl]amino}-N-[(1S)-2-hydroxy-1-methylethyl]quinazoline-8-carboxamide]
The Ki of the first is 2.7-fold lower: 77 nM for the first, 210 nM for the second.

First: CC(C)(CO)NC(=O)c1cccc2cnc(N[C@H]3CC[C@H](NS(C)(=O)=O)CC3)nc12 [Example 132, N-(2-hydroxy-1,1-dimethylethyl)-2-({trans-4-[(methylsulfonyl)amino]cyclohexyl}amino)quinazoline-8-carboxamide]
Second: CC(=O)N[C@H]1CC[C@H](Nc2ncc3cccc(C(=O)NC(C)(C)CO)c3n2)CC1 [Example 134, 2-{[trans-4-(acetylamino)cyclohexyl]amino}-N-(2-hydroxy-1,1-dimethylethyl)quinazoline-8-carboxamide]
The Ki of the first is 1.6-fold lower: 78 nM for the first, 127 nM for the second.
